Results reported in article PMC11314561, “Design and Synthesis of Novel Aminoindazole-pyrrolo[2,3-b]pyridine Inhibitors of IKKα That Selectively Perturb Cellular Non-Canonical NF-κB Signalling” (Molecules, 2024).

Assays:
Test in all cases: kinase panel
Format in all cases: biochemical
[1] = target: MEK1(h) (Homo sapiens, UniProt Q02750)
How it was run: (§1)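 Three compounds in the series were profiled against a panel of 231 kinases, and activity is reported as % inhibition. For one compound, a subset of 98 kinases was selected on the basis of its structural similarity to another series member.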

[2] = target: T1, Aurora-C(h) (Homo sapiens, UniProt Q9UQB9)
T1 sequence (Q9UQB9 1-309): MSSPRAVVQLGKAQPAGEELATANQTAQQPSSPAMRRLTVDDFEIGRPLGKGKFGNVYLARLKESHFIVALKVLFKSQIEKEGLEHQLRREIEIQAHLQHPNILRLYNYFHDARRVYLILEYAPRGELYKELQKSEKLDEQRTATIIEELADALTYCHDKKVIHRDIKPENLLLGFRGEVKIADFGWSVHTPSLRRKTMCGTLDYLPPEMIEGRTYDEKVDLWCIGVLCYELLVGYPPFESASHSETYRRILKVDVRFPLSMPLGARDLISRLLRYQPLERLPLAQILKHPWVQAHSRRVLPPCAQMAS
How it was run: as §1

[3] = target: GSK3α(h) (Homo sapiens, UniProt P49840)
How it was run: as §1

[4] = target: T2, DYRK2(h) (Homo sapiens, UniProt Q92630)
T2 sequence (Q92630 1-601): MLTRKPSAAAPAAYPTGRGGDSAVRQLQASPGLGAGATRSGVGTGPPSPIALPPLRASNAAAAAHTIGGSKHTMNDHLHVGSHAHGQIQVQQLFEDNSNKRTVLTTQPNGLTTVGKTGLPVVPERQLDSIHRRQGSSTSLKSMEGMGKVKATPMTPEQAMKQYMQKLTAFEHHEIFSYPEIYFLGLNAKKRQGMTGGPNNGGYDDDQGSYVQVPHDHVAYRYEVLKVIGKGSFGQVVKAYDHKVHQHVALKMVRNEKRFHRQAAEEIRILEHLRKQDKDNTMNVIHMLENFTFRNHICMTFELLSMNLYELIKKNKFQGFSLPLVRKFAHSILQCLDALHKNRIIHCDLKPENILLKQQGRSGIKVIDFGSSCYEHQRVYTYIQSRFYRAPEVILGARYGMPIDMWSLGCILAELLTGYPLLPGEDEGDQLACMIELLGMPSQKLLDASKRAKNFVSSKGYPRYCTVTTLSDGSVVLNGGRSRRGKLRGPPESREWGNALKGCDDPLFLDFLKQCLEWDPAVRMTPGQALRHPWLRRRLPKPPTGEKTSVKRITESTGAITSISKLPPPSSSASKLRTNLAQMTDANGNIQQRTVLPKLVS
How it was run: as §1

[5] = target: T3, PRAK(h) (Homo sapiens, UniProt Q8IW41)
T3 sequence (Q8IW41 1-473): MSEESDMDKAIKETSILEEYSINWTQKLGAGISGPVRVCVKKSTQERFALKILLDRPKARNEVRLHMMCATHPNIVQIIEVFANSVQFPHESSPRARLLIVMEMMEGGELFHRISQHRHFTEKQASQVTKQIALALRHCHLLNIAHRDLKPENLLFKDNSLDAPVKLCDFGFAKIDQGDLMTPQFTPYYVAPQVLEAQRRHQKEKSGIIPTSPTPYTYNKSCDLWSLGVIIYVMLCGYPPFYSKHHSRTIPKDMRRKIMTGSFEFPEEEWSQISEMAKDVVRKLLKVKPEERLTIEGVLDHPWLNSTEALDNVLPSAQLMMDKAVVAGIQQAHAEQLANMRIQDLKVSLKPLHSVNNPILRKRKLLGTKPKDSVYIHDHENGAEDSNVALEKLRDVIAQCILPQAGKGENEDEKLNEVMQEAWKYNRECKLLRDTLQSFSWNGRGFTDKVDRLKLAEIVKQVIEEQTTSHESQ
How it was run: as §1

[6] = target: ALK(h) (Homo sapiens, UniProt Q9UM73)
How it was run: as §1

[7] = target: CLK2(h) (Homo sapiens, UniProt P49760)
How it was run: as §1

[8] = target: PRK2(h) (Homo sapiens, UniProt Q16513)
How it was run: as §1

[9] = target: cSRC(h) (Homo sapiens, UniProt P12931)
How it was run: as §1

[10] = target: T4, NEK2(h) (Homo sapiens, UniProt P51955)
T4 sequence (P51955 1-445): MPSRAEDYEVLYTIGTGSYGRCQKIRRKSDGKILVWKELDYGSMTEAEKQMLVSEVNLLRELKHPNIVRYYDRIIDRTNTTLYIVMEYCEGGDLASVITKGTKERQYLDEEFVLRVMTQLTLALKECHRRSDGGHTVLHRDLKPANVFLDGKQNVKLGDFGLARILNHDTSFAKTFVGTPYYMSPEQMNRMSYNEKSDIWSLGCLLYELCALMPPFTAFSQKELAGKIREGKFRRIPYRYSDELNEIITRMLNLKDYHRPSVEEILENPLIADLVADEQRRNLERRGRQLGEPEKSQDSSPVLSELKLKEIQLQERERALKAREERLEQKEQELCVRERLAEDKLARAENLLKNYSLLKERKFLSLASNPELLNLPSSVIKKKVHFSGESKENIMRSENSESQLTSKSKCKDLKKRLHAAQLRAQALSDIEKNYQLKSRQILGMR
How it was run: as §1

Chain of MEK1(h) (Q02750 whole entry): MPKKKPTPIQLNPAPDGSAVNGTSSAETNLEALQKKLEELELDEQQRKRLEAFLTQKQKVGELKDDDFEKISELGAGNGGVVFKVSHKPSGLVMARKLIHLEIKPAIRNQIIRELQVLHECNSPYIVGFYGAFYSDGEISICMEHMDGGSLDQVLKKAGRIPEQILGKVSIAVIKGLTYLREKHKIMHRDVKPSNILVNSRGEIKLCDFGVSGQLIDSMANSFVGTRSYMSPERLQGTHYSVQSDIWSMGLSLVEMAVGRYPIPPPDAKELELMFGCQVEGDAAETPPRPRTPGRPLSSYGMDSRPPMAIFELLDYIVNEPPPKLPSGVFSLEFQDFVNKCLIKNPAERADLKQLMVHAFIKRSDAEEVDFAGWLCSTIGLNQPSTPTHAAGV
Chain of PRK2(h) (Q16513 whole entry): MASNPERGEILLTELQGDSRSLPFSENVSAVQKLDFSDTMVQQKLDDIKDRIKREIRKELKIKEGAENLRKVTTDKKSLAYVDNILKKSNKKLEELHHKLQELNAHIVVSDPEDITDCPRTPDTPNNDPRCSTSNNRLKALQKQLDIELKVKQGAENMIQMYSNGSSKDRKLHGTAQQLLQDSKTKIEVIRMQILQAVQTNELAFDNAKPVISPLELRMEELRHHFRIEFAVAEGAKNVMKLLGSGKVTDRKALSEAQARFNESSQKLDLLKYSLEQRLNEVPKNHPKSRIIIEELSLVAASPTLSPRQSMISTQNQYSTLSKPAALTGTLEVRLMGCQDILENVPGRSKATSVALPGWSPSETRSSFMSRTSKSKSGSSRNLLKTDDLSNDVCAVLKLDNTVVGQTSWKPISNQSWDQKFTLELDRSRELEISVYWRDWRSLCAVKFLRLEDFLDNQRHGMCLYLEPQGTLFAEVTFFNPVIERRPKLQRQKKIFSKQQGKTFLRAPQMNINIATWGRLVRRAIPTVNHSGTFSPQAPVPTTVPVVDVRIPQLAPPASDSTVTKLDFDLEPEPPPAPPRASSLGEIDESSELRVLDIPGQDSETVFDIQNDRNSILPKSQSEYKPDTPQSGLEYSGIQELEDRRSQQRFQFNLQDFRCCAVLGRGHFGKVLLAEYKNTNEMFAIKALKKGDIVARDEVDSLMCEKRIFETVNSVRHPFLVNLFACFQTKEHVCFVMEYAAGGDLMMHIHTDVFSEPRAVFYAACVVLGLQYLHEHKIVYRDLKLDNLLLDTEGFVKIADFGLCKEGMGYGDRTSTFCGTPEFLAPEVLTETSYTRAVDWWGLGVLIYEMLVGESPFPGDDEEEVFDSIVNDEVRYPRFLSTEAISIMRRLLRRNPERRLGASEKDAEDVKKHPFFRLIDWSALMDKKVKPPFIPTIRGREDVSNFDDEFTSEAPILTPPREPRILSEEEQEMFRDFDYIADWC
Chain of cSRC(h) (P12931 whole entry): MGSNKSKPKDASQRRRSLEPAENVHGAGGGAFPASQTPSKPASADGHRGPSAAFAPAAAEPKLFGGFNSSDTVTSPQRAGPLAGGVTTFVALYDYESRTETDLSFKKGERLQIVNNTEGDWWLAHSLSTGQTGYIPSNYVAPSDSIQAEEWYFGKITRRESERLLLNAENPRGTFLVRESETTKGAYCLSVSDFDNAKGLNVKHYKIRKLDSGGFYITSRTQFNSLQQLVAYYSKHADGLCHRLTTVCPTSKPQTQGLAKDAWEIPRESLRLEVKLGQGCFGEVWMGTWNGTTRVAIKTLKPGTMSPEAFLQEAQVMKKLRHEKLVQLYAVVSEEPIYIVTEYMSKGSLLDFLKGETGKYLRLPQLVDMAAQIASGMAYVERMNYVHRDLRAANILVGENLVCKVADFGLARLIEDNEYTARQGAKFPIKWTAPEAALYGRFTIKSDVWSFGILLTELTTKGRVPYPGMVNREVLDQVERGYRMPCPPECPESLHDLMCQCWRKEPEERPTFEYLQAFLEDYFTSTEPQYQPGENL
Chain of ALK(h) (Q9UM73 19-1620): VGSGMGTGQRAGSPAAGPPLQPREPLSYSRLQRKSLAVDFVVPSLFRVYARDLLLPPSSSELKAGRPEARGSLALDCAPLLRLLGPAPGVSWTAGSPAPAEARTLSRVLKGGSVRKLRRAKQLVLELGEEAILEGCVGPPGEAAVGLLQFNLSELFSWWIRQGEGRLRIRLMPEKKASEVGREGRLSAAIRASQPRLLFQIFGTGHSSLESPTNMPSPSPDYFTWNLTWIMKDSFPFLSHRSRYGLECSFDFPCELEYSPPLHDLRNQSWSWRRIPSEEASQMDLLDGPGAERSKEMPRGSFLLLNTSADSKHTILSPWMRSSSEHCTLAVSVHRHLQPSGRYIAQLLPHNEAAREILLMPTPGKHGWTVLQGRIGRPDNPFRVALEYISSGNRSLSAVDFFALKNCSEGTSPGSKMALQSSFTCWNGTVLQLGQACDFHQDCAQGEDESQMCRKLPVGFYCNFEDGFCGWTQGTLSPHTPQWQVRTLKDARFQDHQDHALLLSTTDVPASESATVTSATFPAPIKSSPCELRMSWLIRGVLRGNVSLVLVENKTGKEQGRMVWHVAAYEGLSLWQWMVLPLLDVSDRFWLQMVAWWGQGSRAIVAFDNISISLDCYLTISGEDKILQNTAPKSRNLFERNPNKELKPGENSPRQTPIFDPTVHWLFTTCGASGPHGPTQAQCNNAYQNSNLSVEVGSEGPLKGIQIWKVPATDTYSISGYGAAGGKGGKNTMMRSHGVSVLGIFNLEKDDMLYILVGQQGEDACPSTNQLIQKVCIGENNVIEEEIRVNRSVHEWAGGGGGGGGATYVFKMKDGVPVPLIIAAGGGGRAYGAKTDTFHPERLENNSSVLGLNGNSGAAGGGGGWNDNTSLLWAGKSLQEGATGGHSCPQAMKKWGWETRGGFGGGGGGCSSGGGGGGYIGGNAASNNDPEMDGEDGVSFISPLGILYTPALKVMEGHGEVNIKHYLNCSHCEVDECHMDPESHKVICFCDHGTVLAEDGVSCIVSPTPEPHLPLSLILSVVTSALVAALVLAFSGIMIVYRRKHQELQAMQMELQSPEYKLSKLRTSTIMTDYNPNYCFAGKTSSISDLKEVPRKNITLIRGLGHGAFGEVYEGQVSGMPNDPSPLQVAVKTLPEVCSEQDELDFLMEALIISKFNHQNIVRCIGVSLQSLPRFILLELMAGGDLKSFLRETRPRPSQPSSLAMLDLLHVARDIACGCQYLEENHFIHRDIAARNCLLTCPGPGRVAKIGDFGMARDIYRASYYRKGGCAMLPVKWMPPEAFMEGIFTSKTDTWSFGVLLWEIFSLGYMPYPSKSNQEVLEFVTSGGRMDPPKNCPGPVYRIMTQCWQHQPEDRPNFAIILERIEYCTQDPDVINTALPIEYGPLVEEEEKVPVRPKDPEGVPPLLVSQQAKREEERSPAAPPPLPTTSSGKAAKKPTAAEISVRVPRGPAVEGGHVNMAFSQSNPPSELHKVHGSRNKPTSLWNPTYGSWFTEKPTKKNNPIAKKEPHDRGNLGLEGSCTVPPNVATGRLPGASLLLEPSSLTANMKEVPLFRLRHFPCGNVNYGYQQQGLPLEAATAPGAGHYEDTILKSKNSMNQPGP
Chain of CLK2(h) (P49760 whole entry): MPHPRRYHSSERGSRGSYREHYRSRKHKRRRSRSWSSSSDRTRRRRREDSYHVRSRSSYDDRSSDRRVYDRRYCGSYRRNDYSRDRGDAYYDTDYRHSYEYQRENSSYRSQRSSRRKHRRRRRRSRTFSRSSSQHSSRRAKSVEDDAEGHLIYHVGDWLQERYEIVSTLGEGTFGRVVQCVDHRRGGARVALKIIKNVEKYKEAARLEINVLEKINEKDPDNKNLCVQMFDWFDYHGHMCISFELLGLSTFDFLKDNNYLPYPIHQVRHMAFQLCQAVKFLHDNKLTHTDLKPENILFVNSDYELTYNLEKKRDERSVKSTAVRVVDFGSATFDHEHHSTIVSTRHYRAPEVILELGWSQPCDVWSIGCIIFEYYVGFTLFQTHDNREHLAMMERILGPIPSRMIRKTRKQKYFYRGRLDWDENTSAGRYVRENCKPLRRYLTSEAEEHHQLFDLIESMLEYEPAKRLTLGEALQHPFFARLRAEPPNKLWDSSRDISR
Chain of GSK3α(h) (P49840 whole entry): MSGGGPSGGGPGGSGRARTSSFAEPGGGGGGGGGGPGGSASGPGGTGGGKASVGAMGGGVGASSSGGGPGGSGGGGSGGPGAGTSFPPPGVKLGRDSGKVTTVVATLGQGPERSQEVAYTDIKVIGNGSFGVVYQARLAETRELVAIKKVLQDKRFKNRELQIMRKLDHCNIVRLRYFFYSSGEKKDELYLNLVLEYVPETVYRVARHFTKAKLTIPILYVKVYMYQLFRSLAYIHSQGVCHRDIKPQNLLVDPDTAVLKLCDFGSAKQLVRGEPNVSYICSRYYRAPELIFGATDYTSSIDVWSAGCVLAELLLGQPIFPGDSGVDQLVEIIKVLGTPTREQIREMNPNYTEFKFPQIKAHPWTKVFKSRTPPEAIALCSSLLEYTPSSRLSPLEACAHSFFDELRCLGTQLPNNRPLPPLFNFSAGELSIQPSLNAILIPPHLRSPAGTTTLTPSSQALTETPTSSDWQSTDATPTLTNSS

Row | inhibition at 1 µM [1] [%] | inhibition at 1 µM [2] [%] | inhibition at 1 µM [3] [%] | inhibition at 1 µM [4] [%] | inhibition at 1 µM [5] [%] | inhibition at 1 µM [6] [%] | inhibition at 1 µM [7] [%] | inhibition at 1 µM [8] [%] | inhibition at 1 µM [9] [%] | inhibition at 1 µM [10] [%] | SMILES
1 | 0 | 32 | 74 | 14 | 91 | 27 | 80 | 56 | 26 | 4 | Nc1n[nH]c2ccc(-c3ccnc4[nH]c(-c5cccc(OCc6ccccc6)c5)cc34)cc12 [Compound 5r [SU1261]]
2 | 8 | 19 | 27 | 9 | 44 | 5 | 68 | 19 | -28 | 8 | Nc1n[nH]c2ccc(-c3ccnc4[nH]c(-c5ccnc(OCc6ccccc6)c5)cc34)cc12 [Compound 6g [SU1349]]
3 | 8 | 90 | 95 | 43 | 97 | 56 | 97 | 85 | 42 | 5 | Nc1n[nH]c2ccc(-c3ccnc4[nH]c(-c5ccccc5)cc34)cc12 [Compound 4]
